The results in this text go back to PubChem BioAssay AID1645848.

≈ marks a conversion by molar mass, not a printed value. Where “and” joins values, the source holds several entries; their conditions need not be identical. Equal entries are not always repeated.

For this data set the following is noted: buffer; pH 7.4; 6.0 h; 150.0 µM.
One may read the kinetic solubility as the concentration staying in solution when a stock, usually in DMSO, is diluted into the medium. For `COc1ccc(-n2nc(C3CCCN(C(=O)c4cccc(OC)c4)C3)[nH]c2=O)cc1` (stereo not drawn), the kinetic solubility was found to be 22.4 µg/mL (≈ 54.8 µM).

For the compound `Cc1cccc(-c2csc(N3CCC(C(N)=O)CC3)n2)c1`, the kinetic solubility is greater than 45 µg/mL.

Consider `COc1ccc(OC)c(N2C(=O)C(Cl)=C(N3CCCCC3)C2=O)c1`, for which the solubility (kinetic) is less than 1 µg/mL.

In the case of `Cc1cnc(N2CCC(C(N)=O)CC2)nc1-c1cccc(N(C)C)c1`, the solubility (kinetic) was greater than 50 µg/mL.

Consider `CCN(CC)C(=O)N1c2ccccc2C=Cc2ccccc21`, for which the solubility (kinetic) amounted to 15.9 µg/mL (≈ 54.5 µM).

In the case of `CN1C(=O)CN=C(c2ccccc2Cl)c2cc(Cl)ccc21`, the solubility (kinetic) is greater than 47 µg/mL.

`CCN(CC)CCOc1ccc2c(=O)c3ccc(Cl)cc3n(CCN(CC)CC)c2c1`: the kinetic solubility was greater than 66 µg/mL.

With `O=C(CSc1ccccc1)Nc1nnc(COc2ccc(Cl)cc2)s1`, the kinetic solubility was less than 1 µg/mL.

`O=C1CCCC2=C1C1(CCSCC1)N=C(Nc1nc3ccccc3o1)N2` yielded a solubility (kinetic) of less than 1 µg/mL.

`Fc1ccc(-c2csc3ncnc(Sc4nnnn4C4CC4)c23)cc1`: the kinetic solubility stood at 2.91 µg/mL (≈ 7.85 µM).

`COc1cccc(CNc2ccc(S(=O)(=O)Nc3ccccn3)cc2)c1O` yielded a solubility (kinetic) of 8.36 µg/mL (≈ 21.7 µM). Against the preceding compound, the solubility kinetic is about 2.9-fold higher.

With `O=c1cc(-c2nc(Nc3ccc(F)c(F)c3)c3ccccc3n2)cc[nH]1`, the kinetic solubility was 11.9 µg/mL (≈ 34.1 µM).

`Cc1ccc(-n2c(=O)c3oc4ccccc4c3n(CC(=O)Nc3ccc(F)c(Cl)c3)c2=O)cc1C` came in with a kinetic solubility of less than 1 µg/mL.

`COc1ccnc(NC(=S)N2CCN(c3ccc(Cl)c(Cl)c3)CC2)c1` showed a solubility (kinetic) of 3.16 µg/mL (≈ 7.96 µM).

Regarding `CN1CCN(c2ccc(Nc3nn4c(=O)c5ccccc5nc4s3)cc2)CC1`, the solubility (kinetic) was greater than 58 µg/mL.

Take `CSc1nc(N)cc(Oc2ccc(-c3nc(Nc4cccc(C(F)(F)F)c4)n[nH]3)cc2)n1`: the kinetic solubility is less than 1 µg/mL.

Take `COc1ccc(NS(=O)(=O)c2ccc(C)c(C(=O)Nc3ccc4oc(C)nc4c3)c2)cc1`: the kinetic solubility was 8.77 µg/mL (≈ 19.4 µM).

With `O=C(Nc1cn[nH]c1-c1nc2ccc(CN3CCOCC3)cc2[nH]1)NC1CC1`, the kinetic solubility was greater than 38 µg/mL.

The compound `COc1cccc(CNc2ccc(S(=O)(=O)Nc3ccc(C)nc3)cc2)c1O` yielded a kinetic solubility of 16.5 µg/mL (≈ 41.2 µM).

Regarding `Nc1nc(N)c2c(OCC3CCN(Cc4ccccc4F)CC3)cccc2n1`, the solubility (kinetic) is greater than 56 µg/mL.

`CN1CCN(CCCN2c3ccccc3Sc3ccc(S(=O)(=O)N(C)C)cc32)CC1.CS(=O)(=O)O.CS(=O)(=O)O` returned a solubility (kinetic) greater than 66 µg/mL.

For the compound `CCc1cccc(C)c1Nc1c(-c2ccc(N(C)C)cc2)nc2ncccn12`, the kinetic solubility is 1.88 µg/mL (≈ 5.05 µM).

Turning to `CN=C1CN=C(c2ccc[nH]2)c2cc(Cl)ccc2N1`, the solubility (kinetic) was 10.8 µg/mL and 28.3 µg/mL.

The compound `CCCCOc1ccccc1C(=O)Nc1ccccc1C(=O)Nc1cccc(S(=O)(=O)C(F)(F)F)c1` had a kinetic solubility of less than 1 µg/mL.

`CC1(C)CC(=O)C2=C(C1)NC(Nc1nc3ccccc3o1)=NC2c1ccccc1Cl` (stereo not drawn) registered a kinetic solubility of less than 1 µg/mL.

On to `CN1CCCC1CCOC(c1cc2nccc(C(=O)O)c2[nH]1)c1ccccc1Cl` (stereo not drawn), for which the solubility (kinetic) is greater than 61 µg/mL.

Compound `CCc1ccc(NC(=O)[C@H](Cc2c[nH]c3ccccc23)NC(=O)[C@@H]2Cc3ccccc3CN2)cc1` returned a solubility (kinetic) of 3.49 µg/mL (≈ 7.48 µM).

`O=C(O)C1CCN(c2ncc(-c3ccc4c(c3)OCCCO4)s2)CC1`: the solubility (kinetic) is greater than 53 µg/mL.

As to `CCn1cc(C(=O)O)c(=O)c2cnc(N3CCN(C(=S)Nc4ccccc4)CC3)nc21`, the kinetic solubility is greater than 65 µg/mL.

As for `CC(C)(C)OC(=O)N[C@@H](Cc1ccc(O[S+](=O)([O-])c2cccc3cnccc23)cc1)C(=O)Nc1ccc(-c2ccccc2)cc1`, the kinetic solubility is less than 1 µg/mL.

`CCOc1ccc(OCC)c(NC(=O)C(NS(=O)(=O)c2ccc(Br)s2)c2ccccc2)c1` (stereo not drawn): the kinetic solubility was less than 1 µg/mL.

`CN1CCN(C2=Nc3cc(Cl)ccc3Nc3ccccc32)CC1` had a solubility (kinetic) of 25.1 µg/mL (≈ 76.8 µM).

Regarding `CC[C@H]1CN2CCc3cc(OC)c(OC)cc3[C@@H]2C[C@@H]1C[C@H]1NCCc2cc(OC)c(OC)cc21`, the solubility (kinetic) was greater than 71 µg/mL.

As to `CC1(C)CNc2cc(NC(=O)c3cccnc3NCc3ccncc3)ccc21`, the kinetic solubility was found to be 41.8 µg/mL (≈ 112 µM).

Consider `Clc1ccc(Nc2nc(-c3ccncc3)nc3ccccc23)cc1Cl`, for which the kinetic solubility was less than 1 µg/mL.

For the compound `Fc1ccccc1CNCc1ccc(-c2ccnc3[nH]ccc23)cc1`, the kinetic solubility was found to be 13.2 µg/mL (≈ 39.8 µM).

For the compound `O=C(Nc1ccc2oc(-c3ccncc3)nc2c1)c1ccccc1Cl`, the solubility (kinetic) is less than 1 µg/mL.

As to `Cc1ccc2c(c1)c(=O)c1ccccc1n2CCCC(=O)Nc1cc(Cl)ccc1C`, the solubility (kinetic) is less than 1 µg/mL.

The compound `Cn1c2ccccc2c2c3c(c4c5ccccc5n(CCC#N)c4c21)CNC3=O` showed a solubility (kinetic) of less than 1 µg/mL.

As for `c1cn2cc(-c3ccc4cn[nH]c4c3)nc(Nc3ccc(N4CCOCC4)cc3)c2n1`, the solubility (kinetic) was less than 1 µg/mL.

In turn, `COc1cccc(CNC(=O)CCCn2nc(C)c3c(C)n(-c4ccc(C)cc4)nc3c2=O)c1OC` yielded a solubility (kinetic) of 2.58 µg/mL (≈ 5.26 µM).

Take `c1ccc2c(Nc3nccs3)nc(-c3ccncc3)nc2c1`: the solubility (kinetic) was less than 1 µg/mL.

As for `Nc1c(-c2ccccc2)cc[nH]c1=O`, the solubility (kinetic) was found to be 12.9 µg/mL (≈ 69.1 µM).

The compound `CNc1oc(-c2cccc(Cl)c2Cl)nc1C#N` yielded a kinetic solubility of less than 1 µg/mL.

Take `CCOc1ccccc1C(=O)Nc1ncccc1C(=O)Nc1cccc(S(=O)(=O)C(F)(F)F)c1`: the solubility (kinetic) is less than 1 µg/mL.

As for `Cc1ccc(NC(=O)N(Cc2cn(C)c3ccccc23)C2CCCCC2)cc1C`, the solubility (kinetic) was 2.37 µg/mL (≈ 6.08 µM).

Compound `CCOc1cc(CNc2ccc(O)cc2)ccc1OCc1ccc(Cl)cc1` had a kinetic solubility of 4.36 µg/mL (≈ 11.4 µM).

`C=Cc1ccc(C(=O)N2CCCC(CCC(=O)N3CCN(c4ccccn4)CC3)C2)cc1` (stereo not drawn): the solubility (kinetic) is greater than 64 µg/mL.

Compound `Fc1ccc(Nc2nc(-n3ccnc3)nc3ccccc23)cc1F` returned a kinetic solubility of less than 1 µg/mL.

As to `CCOC(=O)Nc1ccc(NCc2ccc(F)cc2)nc1N`, the solubility (kinetic) amounted to 8.21 µg/mL (≈ 27 µM).

Turning to `Cc1noc(C)c1-c1ccc2ncnc(NCc3cccc(Cl)c3)c2c1`, the kinetic solubility is less than 1 µg/mL.

`CC(C)c1ccc(OCc2nc3c(n2Cc2ccccc2)C(=O)N(CC2CC2)CCN3)cc1`: the kinetic solubility was less than 1 µg/mL.

`NC(=O)C1CCN(c2nc(-c3ccccc3)cs2)CC1` had a solubility (kinetic) greater than 42 µg/mL.

Compound `Cc1ccc(S(=O)(=O)Nc2cnccc2C(=O)Nc2nc(-c3nc4ccccc4s3)cs2)cc1` yielded a solubility (kinetic) of 2.11 µg/mL (≈ 4.15 µM).

Turning to `N#Cc1ccc(NS(=O)(=O)c2ccc(NC(=O)Cc3ccc(F)c(Cl)c3)cc2)cc1`, the kinetic solubility is less than 1 µg/mL.

The compound `O=C(Nc1cccc(F)c1)c1cc(-c2ccc[nH]2)n[nH]1` had a solubility (kinetic) of 1.77 µg/mL (≈ 6.57 µM).

Consider `CS(=O)(=O)c1ccc(-c2cnc(NCc3ccco3)n3cnnc23)cc1`, for which the solubility (kinetic) is greater than 37 µg/mL.

`COc1cc(Cl)c(C)cc1NS(=O)(=O)c1c(C)nc2sccn2c1=O` registered a kinetic solubility of less than 1 µg/mL.

As to `Fc1ccc(Nc2ccnc(-c3ccncc3)n2)cc1F`, the kinetic solubility turned out to be 1.22 µg/mL (≈ 4.27 µM).

`C[C@H]1CN(C(=O)Nc2ccc(F)cc2F)C[C@@H]1c1nc(-c2ccccc2)no1` yielded a kinetic solubility of 19.3 µg/mL (≈ 50.3 µM).

`Cc1ccc2[nH]c(-c3ccccc3)cc(=O)c2c1` registered a kinetic solubility of 3.41 µg/mL (≈ 14.5 µM).

With `COc1ccc2cc1Oc1ccc(cc1)C[C@@H]1c3c(cc(OC)c4c3Oc3cc5c(cc3O4)CCN[C@H]5C2)CCN1C`, the solubility (kinetic) was less than 1 µg/mL.

On to `Fc1ccc(Nc2nc(-c3ccnc(N4CCCCC4)c3)nc3ccccc23)cc1F`, for which the kinetic solubility is less than 1 µg/mL.

As for `CCOC(=O)[C@H]1O[C@@H]1C(=O)N[C@@H](CC(C)C)C(=O)NCCC(C)C`, the kinetic solubility is 24 µg/mL (≈ 70.1 µM).

As to `Cc1csc2nc(-c3cccc(NC(=O)c4ccccc4Cl)c3)cn12`, the kinetic solubility is less than 1 µg/mL.

As for `CN1C(=O)c2ccccc2[S@](=O)c2ccc(C(=O)NCCN3CCCC3)cc21`, the solubility (kinetic) was greater than 59 µg/mL.

Take `COc1ccc2[nH]c(=O)c(-c3noc(-c4ccc(F)cc4)n3)cc2c1`: the kinetic solubility was less than 1 µg/mL.

Compound `COc1oc(-c2cccc3ccccc23)nc1C(=O)O` yielded a kinetic solubility greater than 40 µg/mL.

Take `Cc1ccc(S(=O)(=O)Nc2cnccc2C(=O)Nc2nc(-c3ccc(Oc4ccccc4)cc3)cs2)cc1`: the solubility (kinetic) was found to be 0.918 µg/mL (≈ 1.69 µM).

The compound `CC1=C(C(=O)Nc2ccccc2)C(c2ccc[nH]2)n2ncnc2N1` (stereo not drawn) yielded a solubility (kinetic) of 9.06 µg/mL (≈ 28.3 µM).

As for `Cc1noc(C)c1-c1ccc(-c2cc(C(N)=O)c(NC(N)=O)s2)c(O[C@H]2CCNC2)c1`, the kinetic solubility is 38.5 µg/mL (≈ 87.3 µM). This solubility kinetic lies about 4.2-fold higher than the previous one.

Consider `NC(=O)C1CCN(c2nc(-c3ccccc3Br)cs2)CC1`, for which the solubility (kinetic) was greater than 54 µg/mL.

`Cc1cccc(N2CCN(c3nc4ccccc4c4nnc(C)n34)CC2)c1C` showed a solubility (kinetic) of less than 1 µg/mL.

The compound `COc1cc2nccc(Oc3ccc(NC(=O)C4(C(=O)Nc5ccc(F)cc5)CC4)cc3)c2cc1OC` gave a kinetic solubility of less than 1 µg/mL.

The compound `Cc1ccc(NC(=O)c2cc(-c3ccc[nH]3)n[nH]2)cc1F` showed a solubility (kinetic) greater than 28 µg/mL.

In turn, `Cc1sc(NC(=O)Cc2ccc3c(c2)OCO3)nc1-c1ccc2c(c1)CCN2C(=O)c1ccccc1C(F)(F)F` yielded a solubility (kinetic) of less than 1 µg/mL.

`O=[S+]([O-])(Nc1ccc(-c2ccccc2)cc1)c1ccc(NCc2ccc(Cl)cc2O)cc1` gave a kinetic solubility of less than 1 µg/mL.

`O=[S+]([O-])(Nc1nccs1)c1ccc(NCc2cc(Cl)cc(Br)c2O)cc1` showed a kinetic solubility of less than 1 µg/mL.

Consider `Cc1ccc(Nc2nc(-c3ccncc3)nc3ccccc23)cc1F`, for which the kinetic solubility was less than 1 µg/mL.

In turn, `COc1ccc(OC)c(-n2c3c(cc(-c4nc(-c5ccc(Cl)cc5)cs4)c2=O)C(=O)CC(C)(C)C3)c1` came in with a solubility (kinetic) of less than 1 µg/mL.

For `Cc1cnc(-c2ccccc2C(F)F)nc1NCc1ccc(-n2ccnn2)cc1`, the kinetic solubility was less than 1 µg/mL.

On to `Cc1cccc(CNc2ccc(S(=O)(=O)Nc3nccs3)cc2)c1O`, for which the solubility (kinetic) was greater than 55 µg/mL.

`CCOC(=O)C1CCN(c2nc(-c3ccc(Br)cc3)cs2)CC1`: the kinetic solubility was less than 1 µg/mL.

The compound `CCc1ccc(NC(=O)c2[nH]c(C)c(C(C)=O)c2C)cc1[S+](=O)([O-])N1CCCCCC1` showed a solubility (kinetic) of 1.19 µg/mL (≈ 2.67 µM).

Take `O=C(Nc1ccc([S+](=O)([O-])Nc2nccs2)cc1)c1ccn[nH]1`: the solubility (kinetic) is greater than 52 µg/mL.

In turn, `CN(C(=O)CSc1nc2c(c(=O)[nH]1)CCCC2)c1ccccc1` had a solubility (kinetic) greater than 49 µg/mL.

With `Cc1ccc(S(=O)(=O)Nc2cnccc2C(=O)Nc2nc(C(=O)O)cs2)cc1`, the solubility (kinetic) is greater than 62 µg/mL.

`O=C(NCCc1cnc[nH]1)c1ccc(-c2ncc3cnc(-c4cccc(F)c4)cn23)cc1`: the kinetic solubility worked out at 33.7 µg/mL (≈ 79.1 µM).
